Experimental data reported in patent US12358921B2, “Antiviral heterocyclic compounds” (priority 2022, dated 2025).

Experiments:
hMPV A2 TN/94-49 = test: HMPV antiviral assay Method 1 (LLC-MK2 cells, ATP-Lite); type: cell-based; conditions: hMPV A2 TN/94-49, LLC-MK2 cells
Procedure: In vitro HMPV antiviral activity was evaluated using the clinical isolate A2 strain TN 94-49 (obtained from Dr. John Williams, Vanderbilt University, Tennessee) and […] cells (ATCC #CCL-7), an immortalized kidney epithelial cell line from Macaca mulatta. Compounds were resuspended in dimethyl sulfoxide (DMSO) at 10 mM, serially diluted and added to a 384-well source plate. Subsequently, the compounds were diluted and transferred onto 384-well assay plates using the Echo-650 automated liquid handling system (Beckman Coulter, Indiana). The test compounds were assessed in duplicate at a top concentration of 2 μM followed by 2.5-fold serial dilutions to give a total of 10 concentration points. DMSO control wells were also included on the assay plates and were either infected or not, acting as positive and negative controls. A2 TN 94-49 virus infections were performed in-suspension with LLC-MK2 cells. The cells were washed twice with PBS and removed from the cell-culture flask with 0.25% trypsin-EDTA (Thermo Fisher Scientific, MA). The trypsin-EDTA was inactivated by resuspending in 2% fetal bovine serum (FBS) and OptiMEM (ThermoFisher Scientific, MA) containing 1% penicillin-streptomycin. Cells were pelleted by centrifuging for 5 minutes at 800 rpm, the supernatant was removed, and cells were re-suspended and washed in PBS plus 100 μg/mL CaCl2). This step was performed twice. Cells were then re-suspended in serum-free (SF)-OptiMEM containing 4 μg/mL TPCK-Trypsin (Sigma Aldrich, MO), 1% penicillin-streptomycin (ThermoFisher Scientific, MA) and 100 μg/mL CaCl2). Cells were counted and seeded at a density of 5,000 cells/well, 12.5 μL/well. Virus infections were done at a multiplicity of infection (MOI) of 0.005 with 12.5 μL added per well. Virus infections were performed in infection media which contained SF-OptiMEM, 100 μg/mL CaCl2) and 1% penicillin-streptomycin. HMPV viral stocks are suspended in infection media+5% glycerol, thus an equal volume of infection media+5% glycerol was added to uninfected wells to equalize the final % glycerol across all wells of the assay plate. The final concentration of TPCK-trypsin was 2 μg/mL. The assay plates were incubated at 37° C., 5% CO2 for 7 days. After 7 days incubation, 12.5 μL of ATP-Lite (PerkinElmer, MA) was added to each well and the raw luminescence values were determined using the Envision 2104 (Perkin Elmer, MA). The average of the raw luminescence values for the cells and virus only positive control wells was subtracted from all conditions tested and the percent cell health was determined by dividing these values by the average of the cells only negative control wells. EC50 values were then calculated by non-linear regression using a four-parameter curve logistic equation. The curve fit model employed was XLFit Dose Response One Site Model 200: y=(A+(B/(1+((x/C)^D)))), where A is the minimum y value, B is the maximum y value, C is the log EC50value, and D is the slope factor. Method 2: In Vitro HMPV Antiviral Activity was Evaluated Using the Clinical Isolate A2 Strain TN 94-49

[1] = tested on: HUMAN RSV-A (“LONG” STRAIN); test: RSV-A assay (CPE, ATPlite) in Hep-2 cells; type: cell-based; conditions: human respiratory syncytial virus, 120 h, MOI 0.1, 5-day incubation
Method in brief: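 Protection from RSV cytopathic effect read by ATP luminescence (ATPlite) after 5-day culture. Genotype A "Long" virus added at MOI 0.1 to Hep-2 monolayers at 8,000 cells/well, pre-dosed with duplicate 2-fold compound dilutions; controls include infected untreated and uninfected wells. EC50 values binned into ranges.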

COc1cc(C(=O)NC[C@@](O)(c2cccc(F)c2)c2cc3c(c(-c4ccc5c(c4Cl)OC(F)(F)O5)n2)OC[C@]3(C)C(N)=O)cc2cn(C3CC3)nc12 [Example 274]
EC50 (hMPV A2 TN/94-49): < 0.5 µM
EC50 [1]: < 0.2 µM

[2H]C([2H])([2H])c1nc2ccc(C(=O)NC[C@@](O)(c3ccccc3)c3cc4c(c(-c5cc(Cl)c(F)cc5F)n3)OC[C@]4(C)C(N)=O)cc2o1 [Example 87]
EC50 (hMPV A2 TN/94-49): < 0.5 µM
EC50 [1]: < 0.2 µM

COc1cc(C(=O)NC[C@@](O)(c2ccccc2)c2cc3c(c(-c4cc(C(F)F)c(F)cc4F)n2)OC[C@]3(C)C(N)=O)cc2cn(C3CC3)nc12 [Example 288]
EC50 (hMPV A2 TN/94-49): < 0.5 µM
EC50 [1]: < 0.2 µM

COc1cc(C(=O)NC[C@@](O)(c2cccc(F)c2)c2cc3c(c(-c4ccc(F)c(Cl)c4Cl)n2)OC[C@]3(C)C(N)=O)cc2oc(C)nc12 [Example 279]
EC50 (hMPV A2 TN/94-49): < 0.5 µM
EC50 [1]: < 0.2 µM

[2H]C([2H])([2H])c1nc2c(OC)cc(C(=O)NC[C@](O)(c3cc4c(c(-c5ccc(F)c(Cl)c5Cl)n3)OC[C@]4(C)C(N)=O)C3CC3)cc2cc1Br [Example 24]
EC50 (hMPV A2 TN/94-49): < 0.5 µM
EC50 [1]: < 0.2 µM

COc1cc(C(=O)NC[C@](O)(c2cc3c(c(-c4cc(C(F)(F)F)ccc4C)n2)OC[C@]3(C)C(N)=O)C2CC2)cc2cn(C3CC3)nc12 [Example 53]
EC50 (hMPV A2 TN/94-49): < 0.5 µM
EC50 [1]: < 0.2 µM

C[C@]1(C(N)=O)COc2c1cc([C@@](O)(CNC(=O)c1ccc3nc(N)sc3c1)c1ccccc1)nc2-c1ccc2c(c1Cl)OC(F)(F)O2 [Example 256]
EC50 (hMPV A2 TN/94-49): < 0.5 µM
EC50 [1]: < 0.2 µM

COc1cc(C(=O)NC[C@@](O)(c2ccccc2)c2cc3c(c(-c4ccc5c(c4Cl)OC(F)(F)O5)n2)OC[C@]3(C)C(N)=O)cc2cc(C3CC3)nn12 [Example 254]
EC50 (hMPV A2 TN/94-49): < 0.5 µM
EC50 [1]: < 0.2 µM

COc1cc(C(=O)NC[C@@](O)(c2ccccc2)c2cc3c(c(-c4cc(Cl)c(F)cc4F)n2)OC[C@]3(C)C(N)=O)cc2cn(C(F)F)nc12 [Example 156]
EC50 (hMPV A2 TN/94-49): < 0.5 µM
EC50 [1]: < 0.2 µM

[2H]C([2H])([2H])c1nc2c(OC)cc(C(=O)NC[C@@](O)(c3ccc(F)cc3)c3cc4c(c(-c5cc(Cl)c(F)cc5F)n3)OC[C@]4(C)C(N)=O)cc2s1 [Example 16]
EC50 (hMPV A2 TN/94-49): < 0.5 µM
EC50 [1]: < 0.2 µM

COc1cc(C(=O)NC[C@](O)(c2cc3c(c(-c4cc(Cl)c(F)cc4F)n2)OC[C@]3(C)C(N)=O)C2CC2)cc2cc(C(F)(F)F)cnc12 [Example 1]
EC50 (hMPV A2 TN/94-49): > 0.5 µM
EC50 [1]: < 0.2 µM

[2H]C([2H])([2H])c1nc2c(OC)cc(C(=O)NC[C@@](O)(c3ccc(F)cc3)c3cc4c(c(-c5ccc6c(c5Cl)OC(F)(F)O6)n3)OC[C@]4(C)C(N)=O)cc2s1 [Example 27]
EC50 (hMPV A2 TN/94-49): < 0.5 µM
EC50 [1]: < 0.2 µM

COc1cc(C(=O)NC[C@](O)(c2cc3c(c(-c4cc(Cl)c(C)cc4F)n2)OC[C@]3(C)C(N)=O)C2CC2)cc2cn(C3CC3)nc12 [Example 51]
EC50 (hMPV A2 TN/94-49): > 0.5 µM
EC50 [1]: < 0.2 µM

[2H]C([2H])([2H])c1nc2c(OC)cc(C(=O)NC[C@@](O)(c3ccsc3)c3cc4c(c(-c5cc(Cl)c(F)cc5F)n3)OC[C@]4(C)C(N)=O)cc2s1 [Example 176]
EC50 (hMPV A2 TN/94-49): < 0.5 µM
EC50 [1]: < 0.2 µM

Cc1nc2ccc(C(=O)NC[C@@](O)(c3ccccc3)c3cc4c(c(-c5cc(Cl)c(F)cc5F)n3)OC[C@]4(C)C(N)=O)cc2o1 [Example 86]
EC50 (hMPV A2 TN/94-49): < 0.5 µM
EC50 [1]: < 0.2 µM

COc1cc(C(=O)NC[C@@](O)(c2cccc(F)c2)c2cc3c(c(-c4cc(Cl)c(F)cc4F)n2)OC[C@]3(C)C(N)=O)cc2cn(C(F)F)nc12 [Example 134]
EC50 (hMPV A2 TN/94-49): < 0.5 µM
EC50 [1]: < 0.2 µM

C[C@]1(C(N)=O)COc2c1cc([C@@](O)(CNC(=O)c1cc(Cl)c3nn(C4CC4)cc3c1)C1CC1)nc2-c1ccc2c(c1Cl)OC(F)(F)O2 [Example 35]
EC50 (hMPV A2 TN/94-49): < 0.5 µM
EC50 [1]: < 0.2 µM

COc1cccc([C@](O)(CNC(=O)c2cc(OC)c3nc(C)c(Cl)cc3c2)c2cc3c(c(-c4cc(Cl)c(F)cc4F)n2)OC[C@]3(C)C(N)=O)c1 [Example 164]
EC50 (hMPV A2 TN/94-49): < 0.5 µM
EC50 [1]: < 0.2 µM
